Legend:
monochoria (Mo) = experiment: Test Example 1: herbicidal effects by paddy field soil treatment; assay type: in vivo; settings: 100 g of the active ingredient per 10 ares, 21st day after the application, index 0-5 of Table 47;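 further: grade of growth control; 5 = at least 90%; 4 = 70 to 90%; 3 = 50 to 70%; 2 = 30 to 50%; 1 = 10 to 30%; 0 = under 10%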
In short: (§1)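 Flooded paddy-soil pots (3 cm water) sown after puddling/leveling; treatment 100 g a.i./10 ares; greenhouse culture; herbicidal effect rated visually on a scoring scale at 21 d post-application.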

barnyardgrass (Ec) [1] = experiment: as above; assay type: in vivo; settings: 100 g of the active ingredient per 10 ares, 21st day after the application, index 0-5 of Table 47
In short: as §1

bulrush (Sc) = experiment: as above; assay type: in vivo; settings: 100 g of the active ingredient per 10 ares, 21st day after the application, index 0-5 of Table 47;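 further: grade of growth control; 5 = at least 90%; 4 = 70 to 90%; 3 = 50 to 70%; 2 = 30 to 50%; 1 = 10 to 30%; 0 = under 10%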
In short: as §1

pale smartweed (Po) [2] = experiment: Test Example 9: crop plant selectivity by upland field foliage treatment (wheat), herbicidal effects; assay type: in vivo; parameters: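 grade of growth control; 5 = at least 90%; 4 = 70 to 90%; 3 = 50 to 70%; 2 = 30 to 50%; 1 = 10 to 30%; 0 = under 10%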; settings: dose 1.6 g ai/10a, 14th day after treatment
Procedure: (§2) (Test on Crop Plant Selectivity by Upland Field Foliage Treatment)
(§3) In a plastic pot (surface area: 600 cm^2) filled with sand, wheat (Tr), pale smartweed (Po), slender amaranth (Am), common lambsquarters (Ch) and China jute (Ab) were sown and cultured in a green house for 2 weeks. […] The plants were then cultured in a green house, and the evaluation of the herbicidal effects and phytotoxicity was conducted on the 14th day after the treatment in accordance with the standards as identified in Table 47.

slender amaranth (Am) [3] = experiment: as above; assay type: in vivo; parameters: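 grade of growth control; 5 = at least 90%; 4 = 70 to 90%; 3 = 50 to 70%; 2 = 30 to 50%; 1 = 10 to 30%; 0 = under 10%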; settings: dose 1.6 g ai/10a, 14th day after treatment
Procedure: as §2, §3

[4] = test system: common lambsquarters (Ch); experiment: as above; assay type: in vivo; parameters: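 grade of growth control; 5 = at least 90%; 4 = 70 to 90%; 3 = 50 to 70%; 2 = 30 to 50%; 1 = 10 to 30%; 0 = under 10%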; settings: dose 1.6 g ai/10a, 14th day after treatment
Procedure: as §2, §3

China jute (Ab) = experiment: as above; assay type: in vivo; parameters: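 grade of growth control; 5 = at least 90%; 4 = 70 to 90%; 3 = 50 to 70%; 2 = 30 to 50%; 1 = 10 to 30%; 0 = under 10%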; settings: dose 1.6 g ai/10a, 14th day after treatment
Procedure: as §2, §3

pale smartweed (Po) [5] = experiment: Test Example 2: herbicidal effects by upland field soil treatment; assay type: in vivo; settings: 100 g of the active ingredient per 10 ares, evaluated on the 21st day after application;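 further: grade of growth control; 5 = at least 90%; 4 = 70 to 90%; 3 = 50 to 70%; 2 = 30 to 50%; 1 = 10 to 30%; 0 = under 10%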
From the text: (§4) (Test on Herbicidal Effects by Upland Field Soil Treatment)

slender amaranth (Am) [6] = experiment: as above; assay type: in vivo; settings: 100 g of the active ingredient per 10 ares, evaluated on the 21st day after application
From the text: as §4

Digitaria ciliaris (Di) = experiment: as above; assay type: in vivo; settings: 100 g of the active ingredient per 10 ares, evaluated on the 21st day after application;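 further: grade of growth control; 5 = at least 90%; 4 = 70 to 90%; 3 = 50 to 70%; 2 = 30 to 50%; 1 = 10 to 30%; 0 = under 10%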
From the text: as §4

[7] = test system: common lambsquarters (Ch); experiment: as above; assay type: in vivo; settings: 100 g of the active ingredient per 10 ares, evaluated on the 21st day after application
From the text: as §4

barnyardgrass (Ec) [8] = experiment: as above; assay type: in vivo; settings: 100 g of the active ingredient per 10 ares, evaluated on the 21st day after application
From the text: as §4

rice flatsedge (Ci) [9] = experiment: as above; assay type: in vivo; settings: 100 g of the active ingredient per 10 ares, evaluated on the 21st day after application
From the text: as §4

wheat (Tr) = experiment: Test Example 9: crop plant selectivity by upland field foliage treatment (wheat), phytotoxicity; settings: dose 1.6 g ai/10a, 14th day after treatment
Procedure: as §2, §3

pale smartweed (Po) [10] = experiment: Test Example 3: herbicidal effects by upland field foliage treatment; assay type: in vivo; parameters: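 grade of growth control; 5 = at least 90%; 4 = 70 to 90%; 3 = 50 to 70%; 2 = 30 to 50%; 1 = 10 to 30%; 0 = under 10%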; settings: 100 g active ingredient per 10 ares, evaluated 14th day after treatment
In short: (§5)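 Foliage-applied treatment on weeds pre-grown for 2 weeks in a greenhouse. Pots held sand (surface area 120 cm^2); seeds were sown and covered with soil. Evaluation: graded herbicidal effect 14 days post-application.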

slender amaranth (Am) [11] = experiment: as above; assay type: in vivo; parameters: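 grade of growth control; 5 = at least 90%; 4 = 70 to 90%; 3 = 50 to 70%; 2 = 30 to 50%; 1 = 10 to 30%; 0 = under 10%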; settings: 100 g active ingredient per 10 ares, evaluated 14th day after treatment
In short: as §5

[12] = test system: common lambsquarters (Ch); experiment: as above; assay type: in vivo; parameters: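 grade of growth control; 5 = at least 90%; 4 = 70 to 90%; 3 = 50 to 70%; 2 = 30 to 50%; 1 = 10 to 30%; 0 = under 10%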; settings: 100 g active ingredient per 10 ares, evaluated 14th day after treatment
In short: as §5

barnyardgrass (Ec) [13] = experiment: as above; assay type: in vivo; parameters: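 grade of growth control; 5 = at least 90%; 4 = 70 to 90%; 3 = 50 to 70%; 2 = 30 to 50%; 1 = 10 to 30%; 0 = under 10%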; settings: 100 g active ingredient per 10 ares, evaluated 14th day after treatment
In short: as §5

Diaitaria ciliaris (Di) = experiment: as above; assay type: in vivo; parameters: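 grade of growth control; 5 = at least 90%; 4 = 70 to 90%; 3 = 50 to 70%; 2 = 30 to 50%; 1 = 10 to 30%; 0 = under 10%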; settings: 100 g active ingredient per 10 ares, evaluated 14th day after treatment
In short: as §5

rice flatsedge (Ci) [14] = experiment: as above; assay type: in vivo; parameters: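 grade of growth control; 5 = at least 90%; 4 = 70 to 90%; 3 = 50 to 70%; 2 = 30 to 50%; 1 = 10 to 30%; 0 = under 10%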; settings: 100 g active ingredient per 10 ares, evaluated 14th day after treatment
In short: as §5

Compound	Herbicidal effects Mo (monochoria (Mo))	Herbicidal effects Ec (barnyardgrass (Ec) [1])	Herbicidal effects Sc (bulrush (Sc))	Herbicidal effects Po (pale smartweed (Po) [2])	Herbicidal effects Am (slender amaranth (Am) [3])	Herbicidal effects Ch [4]	Herbicidal effects Ab (China jute (Ab))	Herbicidal effects Po (pale smartweed (Po) [5])	Herbicidal effects Am (slender amaranth (Am) [6])	Herbicidal effects Di (Digitaria ciliaris (Di))	Herbicidal effects Ch [7]	Herbicidal effects Ec (barnyardgrass (Ec) [8])	Herbicidal effects Ci (rice flatsedge (Ci) [9])	Phytotoxicity Tr (wheat (Tr))	Herbicidal effects Po (pale smartweed (Po) [10])	Herbicidal effects Am (slender amaranth (Am) [11])	Herbicidal effects Ch [12]	Herbicidal effects Ec (barnyardgrass (Ec) [13])	Herbicidal effects Di (Diaitaria ciliaris (Di))	Herbicidal effects Ci (rice flatsedge (Ci) [14])
CCn1c(=O)sc2cc(F)c(-c3ccc(C(F)(F)F)n(C)c3=O)cc21 [Compound 3-7]	5	5	5	5	5	5	5	5	5	5	5	5	5	2	5	5	5	5	5	5
CC(Br)c1cc2c(-c3ccc(C(F)(F)F)n(C)c3=O)c(F)cc(Cl)c2o1 (stereo not shown) [Compound 4-34]	5	5	5	5	5	5	5	5	5	5	5	5	5	2	5	5	5	5	5	5

Source: patent US6472348B1, “Pyridone derivatives and herbicides” (Kumiai Chemical Industry Co., Ltd., priority 1996, dated 2002)
